Test results taken from ChEMBL document CHEMBL1201862, “PubChem BioAssay data set” (2004).
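Results reflect a 48-hour exposure of cells in 96-well plates to compound at five concentrations. The concentration for 50% growth inhibition is given as GI50.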 Calls of active or inactive are those of the source. Cut-off read from the data, not from the text of the source: active = GI50 up to about 1.1 µM and inactive = higher.

Key:
Test in all cases: growth of human tumour cells (NCI), 48 h
A498 = system: A498
EKVX = system: EKVX
HCT-116 = system: HCT-116
HCT-15 = system: HCT-15
KM12 = system: KM12
LOX IMVI = system: LOX IMVI
M14 = system: M14
MDA-MB-435 = system: MDA-MB-435
MOLT-4 = system: MOLT-4
Malme-3M = system: Malme-3M
NCI-H226 = system: NCI-H226
NCI-H23 = system: NCI-H23
NCI/ADR-RES = system: NCI/ADR-RES
OVCAR-4 = system: OVCAR-4
OVCAR-5 = system: OVCAR-5
PC-3 = system: PC-3
RPMI-8226 = system: RPMI-8226
SK-MEL-28 = system: SK-MEL-28
T47D = system: T47D
U-251 = system: U-251

| SMILES | GI50 (A498) | GI50 (EKVX) | GI50 (HCT-116) | GI50 (HCT-15) [µM] | GI50 (KM12) | GI50 (LOX IMVI) | GI50 (M14) | GI50 (MDA-MB-435) | GI50 (MOLT-4) | GI50 (Malme-3M) | GI50 (NCI-H226) | GI50 (NCI-H23) | GI50 (NCI/ADR-RES) | GI50 (OVCAR-4) | GI50 (OVCAR-5) | GI50 (PC-3) | GI50 (RPMI-8226) | GI50 (SK-MEL-28) | GI50 (T47D) | GI50 (U-251) |
| --- | --- | --- | --- | --- | --- | --- | --- | --- | --- | --- | --- | --- | --- | --- | --- | --- | --- | --- | --- | --- |
| COC(=O)C1C(OS(=O)(=O)O)CCC2CN3CCc4c([nH]c5ccccc45)C3CC21 (stereo not given) | > 100 µM (inactive) | > 100 µM (inactive) | > 100 µM (inactive) | > 100 | > 100 µM (inactive) | > 100 µM (inactive) | > 100 µM (inactive) | > 100 µM (inactive) | > 100 µM (inactive) | > 100 µM (inactive) | > 100 µM (inactive) | > 100 µM (inactive) | > 100 µM (inactive) | > 100 µM (inactive) | > 100 µM (inactive) | > 100 µM (inactive) | > 100 µM (inactive) | > 100 µM (inactive) | > 100 µM (inactive) | > 100 µM (inactive) |
| O=C(O)c1nn[nH]c1S | > 100 µM (inactive) | > 100 µM (inactive) | > 100 µM (inactive) | > 100 | > 100 µM (inactive) | > 100 µM (inactive) | > 100 µM (inactive) | > 100 µM (inactive) | > 100 µM (inactive) | > 100 µM (inactive) | > 100 µM (inactive) | > 100 µM (inactive) | > 100 µM (inactive) | > 100 µM (inactive) | > 100 µM (inactive) | > 100 µM (inactive) | > 100 µM (inactive) | > 100 µM (inactive) | > 100 µM (inactive) | > 100 µM (inactive) |
| O=c1c2nc(-c3ccccc3)oc2n(-c2ccccc2)c(=O)n1-c1ccccc1 | 25.8 µM (inactive) | 28.4 µM (inactive) | 31.7 µM (inactive) | > 46.5 | 33.2 µM (inactive) | 38.5 µM (inactive) | > 46.5 µM (inactive) | > 46.5 µM (inactive) | > 46.5 µM (inactive) | > 31.6 µM (inactive) | 31.8 µM (inactive) | 43.2 µM (inactive) | 19.1 µM (inactive) | 18.8 µM (inactive) | > 46.5 µM (inactive) | 44.4 µM (inactive) | > 46.5 µM (inactive) | > 100 µM (inactive) | 37.9 µM (inactive) | 19.3 µM (inactive) |
| CC(=O)OCc1cccc(O)c1C(=O)CCC=C(C)C | > 100 µM (inactive) | > 100 µM (inactive) | > 100 µM (inactive) | > 100 | > 100 µM (inactive) | 46.9 µM (inactive) | > 100 µM (inactive) | > 100 µM (inactive) | > 100 µM (inactive) | > 100 µM (inactive) | > 100 µM (inactive) | > 100 µM (inactive) | > 100 µM (inactive) | > 100 µM (inactive) | 29.3 µM (inactive) | > 100 µM (inactive) | > 100 µM (inactive) | > 100 µM (inactive) | > 100 µM (inactive) | > 100 µM (inactive) |
| [Se]=P(c1ccccc1)(c1ccccc1)c1ccc(C(c2ccccc2)=P(c2ccccc2)(c2ccccc2)c2ccccc2)cc1 | 2.76 µM (inactive) | 1.89 µM (inactive) | 0.6 µM (active) | 4.55 | 0.439 µM (active) | 0.807 µM (active) | 1.54 µM (inactive) | 0.671 µM (active) | 1.32 µM (inactive) | 0.499 µM (active) | 1.31 µM (inactive) | 0.891 µM (active) | 7.67 µM (inactive) | 0.443 µM (active) | 3.05 µM (inactive) | 0.8 µM (active) | 0.313 µM (active) | 2.28 µM (inactive) | 0.537 µM (active) | 0.385 µM (active) |
| Cn1c(=O)n(CC(Br)CBr)c(=O)n(CC(Br)CBr)c1=O (stereo not given) | 77.4 µM (inactive) | 25.2 µM (inactive) | 25.9 µM (inactive) | 36.2 | 48.9 µM (inactive) | 18.4 µM (inactive) | 24.3 µM (inactive) | 29.9 µM (inactive) | 26.3 µM (inactive) | > 100 µM (inactive) | 20.2 µM (inactive) | 36 µM (inactive) | 40.5 µM (inactive) | 66.2 µM (inactive) | 43.9 µM (inactive) | 31.8 µM (inactive) | 25.1 µM (inactive) | 39.7 µM (inactive) | 38.7 µM (inactive) | 43.3 µM (inactive) |
| O=C(O)[C@@H]1NC[C@H]2C(Br)=NO[C@H]21 | > 100 µM (inactive) | > 100 µM (inactive) | > 100 µM (inactive) | > 100 | > 100 µM (inactive) | > 100 µM (inactive) | > 100 µM (inactive) | > 100 µM (inactive) | 29.3 µM (inactive) | > 100 µM (inactive) | > 100 µM (inactive) | > 100 µM (inactive) | > 100 µM (inactive) | > 100 µM (inactive) | > 100 µM (inactive) | > 100 µM (inactive) | > 100 µM (inactive) | > 100 µM (inactive) | > 100 µM (inactive) | > 100 µM (inactive) |
| CN(C)CCCC12CCCCC1=Nc1ccccc12 (stereo not given) | > 100 µM (inactive) | > 100 µM (inactive) | > 100 µM (inactive) | > 100 | > 100 µM (inactive) | > 100 µM (inactive) | > 100 µM (inactive) | 94.6 µM (inactive) | > 100 µM (inactive) | > 100 µM (inactive) | > 100 µM (inactive) | > 100 µM (inactive) | > 100 µM (inactive) | > 100 µM (inactive) | > 100 µM (inactive) | > 100 µM (inactive) | 65.5 µM (inactive) | > 100 µM (inactive) | > 100 µM (inactive) | > 100 µM (inactive) |
